Read-outs that look alike come from different tables or passages of the source.
System: Multidrug resistance-associated proteins (MRPs)
Assay: In vivo microdialysis pharmacokinetics of LVFX with MRPs inhibitor MK571
Parameters: species or system rat
Settings: for increase of AUC0–180 / increase of C max: treatment with MK571 vs control group; for Kp / MRT / half-life / Tmax / AUC(0-inf) / Cmax / AUC(0-t): rat, intravenous; for Kp: with MK571 20 mg/kg intraperitoneally; for MRT / half-life / Tmax / AUC(0-inf) / Cmax / AUC(0-t): with MK571 20 mg/kg i.p.; for MRT / half-life / AUC(0-inf) / Cmax / AUC(0-t): mean ± SD; for AUC(0-t): read-out: AUC0–180 (converted)
Method: On the day of surgery, rats were anesthetized using inhaled isoflurane via a facemask. The rats were placed in a stereotaxic frame (Gene&I), and the body temperature was maintained with a homoeothermic blanket set at 37°C. A midline incision was made to expose the skull. According to the Paxinos and Watson atlas, two microdialysis intracerebral guide cannulae (Eicom Co.) were implanted into the hippocampus CA1 region (Hp‐CA1 coordinates: AP −4.16 mm; ML −2.2 mm; DV −2.9 mm) and lateral ventricle (LV coordinates: AP −1.4 mm; ML +2.2 mm; DV −3.4 mm). Fixed to the skull using a screw and dental cement. After 3 days of recovery, the rats were anesthetized with isoflurane again. An intravascular probe (TP‐100‐20; 20 mm, Eicom Co.) was implanted into the jugular vein toward the right atrium. After the blood microdialysis probe was positioned within the jugular vein, the pipeline was connected to perfuse with ACD solution (citric acid 3.5 mM; sodium citrate 7.5 mM; dextrose 13.6 mM) at a flow rate of […], and the Hamilton microinjection pump was used for continuous perfusion. After stopping isoflurane inhalation, the rats were allowed to wake up naturally on the homoeothermic blanket. The awake rats were placed in a device that allowed them to move freely. Animals were allowed to recover for an additional 24 h.
All microdialysate concentrations (C m) from the hippocampal ECF and lateral ventricle CSF were converted to the unbound drug concentration (C u) at the target site using the following formula: C u = C m/R dial.
A total of 32 rats were randomly divided into the following groups: • Control group, N = 12: vehicle solution + LVFX (50 mg/kg). • TAR group, N = 5: Tariquidar (8 mg/kg) + LVFX (50 mg/kg). • Ko143 group, N = 5: Ko143 (15 mg/kg) + LVFX (50 mg/kg). • MK571 group, N = 5: MK571 (20 mg/kg) + LVFX (50 mg/kg). • PRO group, N = 5: Probenecid (50 mg/kg) + LVFX (50 mg/kg).
Levofloxacin was freshly dissolved in isotonic saline and administered via tail vein injection. Thirty minutes before LVFX administration, the intervention drugs of each group were injected intraperitoneally. To reduce the possible effect of solvents on BBB or BCSFB permeability of LVFX, we prioritized water as the solvent. However, Tariquidar and Ko143 are insoluble in water, and a cosolvent must be used to prepare agents that animals can tolerate. According to the different physicochemical properties of these four inhibitors, the preparation of each transporter inhibitor solution in this experiment was as follows. • P‐glycoprotein (P‐gp) inhibitor Tariquidar[22]: Tariquidar was freshly dissolved in DMSO to 8 mg/ml and then diluted to 4 mg/ml with a solution containing 10% Tween‐80, 25% PEG300, and 65% sterile water. • Breast cancer resistance protein (BCRP) inhibitor Ko143[23]: Ko143 was freshly dissolved in DMSO to 15 mg/ml and then diluted to 7.5 mg/ml with a solution containing 10% Tween‐80, 25% PEG300, and 65% sterile water. • Multidrug resistance‐associated proteins (MRPs) inhibitor MK571[24]: MK571 sodium salt hydrate was dissolved in 1.25% (w/v) aq sodium hydrogen carbonate (NaHCO3) solution to obtain a concentration of 10 mg/ml. • Organic anion transporters (OATs) inhibitor probenecid[25]: Probenecid was dissolved in NaOH (pH = 9.0–9.2) alkalized physiological saline to obtain a concentration of 25 mg/ml.
The pipelines where the blood and brain probes were installed were perfused at the speed of 2 μl/min with ACD solution and ACSF, respectively. Two brain probes were inserted into guide cannulas of the target site and allowed to equilibrate for 1 h. Subsequently, the rats were treated according to their corresponding groups in the device where they could move freely. Microdialyses samples were collected every 15 min using a fraction collector (EFC‐96, Eicom Co.) for 3 h and stored at 4°C until analysis. Finally, rats were anesthetized and decapitated, and their brain was harvested.

[1] = MK571 intervention vs control group
[2] = CSF (lateral ventricle microdialysate, unbound), 30 min before LVFX, CSF, MK571 group, MK571 20 mg/kg i.p. + LVFX 50 mg/kg, N=5
[3] = CSF (lateral ventricle microdialysate, unbound), CSF, MK571 group, MK571 20 mg/kg i.p. + LVFX 50 mg/kg, N=5
[4] = brain ECF (hippocampal microdialysate, unbound), 30 min before LVFX, brain ECF, MK571 group, MK571 20 mg/kg i.p. + LVFX 50 mg/kg, N=5
[5] = 30 min before LVFX, blood, MK571 group, MK571 20 mg/kg i.p. + LVFX 50 mg/kg, N=5

C[C@H]1COc2c(N3CCN(C)CC3)c(F)cc3c(=O)c(C(=O)O)cn1c23 [LVFX, Levofloxacin]
K p,uu,CSF (AUCu,CSF/AUCu,blood, MK571 group, MK571 20 mg/kg i.p. + LVFX 50 mg/kg, N=5): 47.9 ± 2.4 %
K p,uu,ECF (AUCu,ECF/AUCu,blood, MK571 group, MK571 20 mg/kg i.p. + LVFX 50 mg/kg, N=5): 46.0 ± 1.5 %
increase of AUC0–180 (CSF): 1.26 fold
increase of C max (CSF): 1.50 fold
increase in K p,uu,CSF [1]: 1.16 fold
increase in K p,uu,ECF [1]: 1.35 fold
increase of AUC0–180 (brain ECF): 1.47 fold
increase of C max (brain ECF): 1.55 fold
Kp (CSF (lateral ventricle microdialysate) relative to blood, 30 min before LVFX, AUCu,CSF/AUCu,blood, MK571 group, MK571 20 mg/kg i.p. + LVFX 50 mg/kg, N=5, read-out: K p,uu,CSF): 0.479 ± 0.024
MRT [2]: 75.8 min
half-life [2]: 54.9 ± 7.43 min
Tmax [3]: 15 min
AUC(0-inf) [3]: 5860 ng·h/mL
Cmax [3]: 5460 ± 190 ng/mL
AUC(0-t) [3]: 5290 ng·h/mL
Kp (brain ECF (hippocampal microdialysate) relative to blood, 30 min before LVFX, AUCu,ECF/AUCu,blood, MK571 group, MK571 20 mg/kg i.p. + LVFX 50 mg/kg, N=5, read-out: K p,uu,ECF): 0.46 ± 0.015
Tmax [4]: 15 min
AUC(0-inf) [4]: 5630 ng·h/mL
Cmax [4]: 4210 ± 350 ng/mL
MRT [4]: 80.9 min
half-life [4]: 49 ± 15.1 min
AUC(0-t) [4]: 5080 ng·h/mL
Tmax [5]: 15 min
AUC(0-inf) [5]: 11700 ng·h/mL
Cmax [5]: 10100 ± 310 ng/mL
MRT [5]: 69.7 min
half-life [5]: 39.5 ± 4.79 min
AUC(0-t) [5]: 11000 ng·h/mL

Source: paper PMC9804084, “Multiple drug transporters contribute to the brain transfer of levofloxacin” (CNS Neuroscience & Therapeutics, 2022)
